{
  "source": "patent US9545395B2",
  "about": "“Method and composition for enhancement of male erectile function” (priority 2008, dated 2017)",
  "system": "male erectile function (penis)",
  "assay": "Clinical observations and case reports (Patients A-G): erectile response of men after local or systemic application",
  "type": "in vivo, man",
  "conditions": "for persistence of improvements after the last injection: after last IGF1 injection",
  "key": {"[1]": {"conditions": "Patient C, severe erectile dysfunction, maximal doses, before treatment"}, "[2]": {"conditions": "Patient C, maximal oral doses with daily topical androgens"}, "[3]": {"conditions": "Patient D, maximal oral doses combined with intracavernosal injections, before local IGF1"}, "[4]": {"conditions": "Patient D, oral medication without intracavernosal injections, after local IGF1"}, "[5]": {"conditions": "Patient D, oral medications, baseline"}, "[6]": {"conditions": "Patient G, oral medication, baseline"}, "[7]": {"conditions": "Patient E, four weekly IGF1 injections plus 2.5% testosterone cream"}},
  "data": [
    {"molecule": "CCCc1nn(C)c2c(=O)[nH]c(-c3cc(S(=O)(=O)N4CCN(C)CC4)ccc3OCC)nc12", "note": "[Viagra]", "values": [
      {"measurement": "erectile response", "setting": "[1]", "result": "not having any erections"},
      {"measurement": "erectile response", "setting": "[2]", "result": "still could not function"},
      {"measurement": "erectile response", "setting": "[3]", "result": "frequently going soft during intercourse"},
      {"measurement": "erectile response", "setting": "[4]", "result": "getting usable erections"},
      {"measurement": "erectile response", "setting": "[5]", "result": "not responding"},
      {"measurement": "erectile response", "setting": "[6]", "result": "not able function sexually"}
    ]},
    {"molecule": "C[C@]12CC[C@H]3[C@@H](CCC4=CC(=O)CC[C@@]43C)[C@@H]1CC[C@@H]2O", "note": "[Testosterone]", "values": [
      {"measurement": "erectile function after about a month", "setting": "Patient B, 10 mg Testosterone + 6 mcg LR3 IGF1 + 6 mcg PGE1 IC, 2-3 times per week", "result": "able to have sexual intercourse without any medications"},
      {"measurement": "erectile response", "setting": "Patient B, 10 mg Testosterone added to IC mixture of 6 mcg LR3 IGF1 plus 6 mcg PGE1, 2-3 times per week", "result": "dramatically harder and firmer erections"}
    ]},
    {"molecule": "IGF1: IGF-1 (Somatomedin-C), full length protein of 70 amino acids in a single chain with three intramolecular disulfide bridges", "values": [
      {"measurement": "erectile response", "setting": "Patient C, 10-20 ug IGF-1 or 6-10 ug LR3 IGF1 sub-cutaneously plus topical 1% testosterone gel, 3-4 times per week, one month", "result": "erections dramatically improved"},
      {"measurement": "reduction of intracavernosal medication dose", "setting": "Patient D, after penile and intracavernosal IGF1 (5-10 ug combined with intracavernosal injections)", "result": "over 50%"},
      {"measurement": "erectile function", "setting": "Patient D, some of the daily 50-100 ug IGF1 injections applied intermittently into the penis", "result": "immediately experienced improved erectile function"},
      {"measurement": "erectile response", "setting": "Patient D, systemic IGF1 50-100 ug/day subcutaneously in abdomen, with intracavernosal meds", "result": "not getting adequate erections"},
      {"measurement": "persistence of improvements after the last injection", "setting": "Patient E", "result": "persisted for several weeks"},
      {"measurement": "duration of erection after an intracavernosal injection", "setting": "[7]", "result": "over 40 minutes"},
      {"measurement": "hardness of erection after an intracavernosal injection", "setting": "[7]", "result": "over 80%"},
      {"measurement": "erectile function", "setting": "Patient E, four weekly subcutaneous IGF1 injections into penis shaft plus 2.5% testosterone cream twice daily", "result": "dramatically improved the patient's erectile function"},
      {"measurement": "persistence of improvements after the last injection", "setting": "Patient G", "result": "persist for several weeks"},
      {"measurement": "erectile function", "setting": "Patient G, twice weekly subcutaneous 25 ug IGF1 into penis shaft, after Dihydrotestosterone cream", "result": "immediately began experiencing firmer spontaneous erections"},
      {"measurement": "time to functional erections without the need for PDE5's", "setting": "men relying on PDE5's, higher locally applied penile doses", "result": "1-2 weeks"},
      {"measurement": "time after discontinuation until improvement noticeably started weakening", "setting": "men who had used only a couple of doses, essentially gone after a month", "result": "1-2 weeks"},
      {"measurement": "erectile function", "setting": "men, 50-100 μg once per week sub-cutaneously or subdermally in the penis", "result": "dramatic improvement in their erectile function"}
    ]},
    {"molecule": "CN1CC(=O)N2[C@H](c3ccc4c(c3)OCO4)c3[nH]c4ccccc4c3C[C@@H]2C1=O", "note": "[Cialis]", "values": [
      {"measurement": "erectile response", "setting": "[1]", "result": "not having any erections"},
      {"measurement": "erectile response", "setting": "[2]", "result": "still could not function"},
      {"measurement": "erectile response", "setting": "[3]", "result": "frequently going soft during intercourse"},
      {"measurement": "erectile response", "setting": "[4]", "result": "getting usable erections"},
      {"measurement": "erectile response", "setting": "[5]", "result": "not responding"},
      {"measurement": "erectile response", "setting": "[6]", "result": "not able function sexually"}
    ]},
    {"molecule": "CCCc1nc(C)c2c(=O)[nH]c(-c3cc(S(=O)(=O)N4CCN(CC)CC4)ccc3OCC)nn12", "note": "[Levitra]", "values": [
      {"measurement": "erectile response", "setting": "[1]", "result": "not having any erections"},
      {"measurement": "erectile response", "setting": "[2]", "result": "still could not function"},
      {"measurement": "erectile response", "setting": "[3]", "result": "frequently going soft during intercourse"},
      {"measurement": "erectile response", "setting": "[4]", "result": "getting usable erections"},
      {"measurement": "erectile response", "setting": "[5]", "result": "not responding"},
      {"measurement": "erectile response", "setting": "[6]", "result": "not able function sexually"}
    ]},
    {"molecule": "Growth Hormone: Growth Hormone injections daily (Human Growth Hormone)", "values": [
      {"measurement": "erectile function", "setting": "Patient D, daily Growth Hormone injections, 1 year", "result": "did not report a significant improvement in their erectile function"}
    ]},
    {"molecule": "CCCCC[C@H](O)/C=C/[C@H]1[C@H](O)CC(=O)[C@@H]1CCCCCCC(=O)O", "note": "[prostaglandin E1]", "values": [
      {"measurement": "erection firmness", "setting": "Patient A (person one), 1.5 ug prostaglandin E1 intracavernosally alone", "result": "70-75%"},
      {"measurement": "erection firmness", "setting": "Patient B, venous leakage, 6 ug prostaglandin E1 intracavernosally alone", "result": 60, "unit": "%"},
      {"measurement": "duration of erection", "setting": "Patient B, 6 ug prostaglandin E1 intracavernosally alone", "result": "about 30 mins"},
      {"measurement": "erectile response", "setting": "Patient C, maximum doses of PGE1 40 ug/ml plus triple mix papavarine, atropine, phentolamine", "result": "unable to obtain a usable erection"}
    ]}
  ]
}
